Data set [1] relates to cutaneous reactions induced by histamine. In words: Cutaneous reactions induced by histamine. The settings on record: oral, rat. Type of data set: in vivo, rats. The method, then: (§1) The products of this invention were administered orally to rats in the model of the cutaneous reactions. These reactions were induced by intradermal administration of histamine, serotonin, or the 48/80 compound. The activity of these products is expressed as the percentage of reduction in the amount of blue dye having diffused at the injection point, and the obtained values for ED50 expressed in mg/kg are given in Table VI.

Data set [2] deals with bronchospasm induced by a 0.3% histamine aerosol. Briefly: In vivo antihistamine activity: bronchospasm induced by histamine aerosol in awake guinea pig. The settings on record: 10 mg/kg oral in Tween. The protocol:
The in vivo antihistamine activity is determined in the awake guinea pig by testing the bronchospasm induced by a 0.3% histamine aerosol. The antihistaminic activity of the present products is tested upon their oral administration in Tween.

The target in data set [3] is T1, contractions induced by histamine on a guinea pig ileum (Cavia porcellus, UniProt P31389).
T1 construct: on a guinea pig ileum; from tissue; host or cells: isolated guinea pig ileum
Briefly: In vitro antihistamine activity: inhibition of histamine-induced contractions of guinea pig ileum. In kind it is cell-based. The settings on record: for Kb: competitive antagonism of histamine, read-out: pA2 (converted); for IC50: histamine 10^-8 g/l. The protocol: The antagonist is administered at the same time as the agonist or before. In the latter case, the time of contact between the antagonist and the organ isolated before the introduction of the agonist is shown in Table III.

The subject of data set [4] is cutaneous reactions induced by the 48/80 compound. Briefly: Cutaneous reactions induced by 48/80 compound. Type of data set: in vivo, rats. To be noted: oral, rat. The method, then: as §1
Data set [5] concerns cutaneous passive anaphylaxis. In words: Antiallergic activity: cutaneous passive anaphylaxis. In kind it is in vivo, Sprague Dawley rats. The settings on record: po; per os, rat, reduction of Evans blue diffused. The protocol:
The antiallergic activity has been determined in Sprague Dawley rats by the test for cutaneous passive anaphylaxis. Anaphylaxis is induced by the intradermal administration of a serum rich in IgE, followed 24 hours later by the intravenous injection of a solution containing ovalbumin and Evans blue. The activity of the products to be tested, administered per os, is estimated as the percentage of reduction in the amount of Evans blue having diffused at the injection point. Table VI provides the ED50 expressed in mg/kg of certain products of this invention.

Data set [6] concerns contractions induced by serotonin on an isolated guinea pig ileum. Briefly: In vitro antiserotonin activity: inhibition of serotonin-induced contractions of isolated guinea pig ileum. To be noted: Cavia porcellus, serotonin 5.10^-7 g/ml. In kind it is cell-based.
The nature of data set [7]: Oral toxicity (mortality), intragastric administration. The settings on record: mouse, in vivo, read-out: percentage of mortality. The method, then: (§2) The mortality induced by these substances was determined by using Swiss mice which were free of specific pathogenic organisms. The animals were kept in an air conditioned room for 24 to 48 hours prior to the beginning of the experiments. The substances were solubilized in Tween and administered either intragastrically or intraperitoneally.

Data set [8] deals with cutaneous reactions induced by serotonin. Briefly: Cutaneous reactions induced by serotonin. The settings on record: oral, rat. In kind it is in vivo, rats. The method, then:
as §1

Data set [9] can be described thus: Intraperitoneal toxicity (mortality, LD50). To be noted: mouse, in vivo, ip; for mortality: read-out: percentage of mortality; for LD50: Bliss method. The method, then: as §2
The test system of the next data set is motility. In words: Effect on motility in mice (actimeter), sedative. In kind it is in vivo. The settings on record: Mus musculus, oral, read-out: ED50 as a sedative (motility). The protocol: (§3) When administered orally to spontaneously hypertensive rats at a rate of 50 mg/kg every 12 hours for five days, COR 34 41 causes a drop in the AP. The AP becomes stable at the end of the treatment, at a value of about 18 mm Hg below its initial value. The effect on motility when giving the present substances orally to mice, was tested by using an actimeter.

Data set [10] relates to spontaneously hypertensive awake rat. Briefly: Antihypertensive activity in spontaneously hypertensive awake rat, oral. Type of data set: in vivo. The method, then:
In the spontaneously hypertensive awake rat the compound COR 34 41 causes a drop in AP of 18.8% at 25 mg/kg per os, and it causes a drop in AP of 19.3% at 50 mg/kg. The AP returns to normal at the end of an hour, at a dosage of 25 mg/kg, and at the end of 5 hours with a dosage of 50 mg/kg.
The compound COR 34 42 causes a AP drop of 15.6% at a dose of 50 mg/kg per os. The AP returns to normal at the end of 5 hours.

Another data set concerns Swiss mice. To be noted: 14 days of observation; 20 wt. % "Tween" solution; range of lethal doses 946-1459; cited from earlier work.
Data set [11] concerns spontaneously hypertensive rats. Briefly: Antihypertensive activity in spontaneously hypertensive rats, repeated oral administration. In kind it is in vivo, rat. The settings on record: 50 mg/kg orally every 12 hours for five days. The method, then:
as §3

[12] abbreviates: no time of contact printed (antagonist given at the same time as agonist).

T1 sequence (P31389 whole entry): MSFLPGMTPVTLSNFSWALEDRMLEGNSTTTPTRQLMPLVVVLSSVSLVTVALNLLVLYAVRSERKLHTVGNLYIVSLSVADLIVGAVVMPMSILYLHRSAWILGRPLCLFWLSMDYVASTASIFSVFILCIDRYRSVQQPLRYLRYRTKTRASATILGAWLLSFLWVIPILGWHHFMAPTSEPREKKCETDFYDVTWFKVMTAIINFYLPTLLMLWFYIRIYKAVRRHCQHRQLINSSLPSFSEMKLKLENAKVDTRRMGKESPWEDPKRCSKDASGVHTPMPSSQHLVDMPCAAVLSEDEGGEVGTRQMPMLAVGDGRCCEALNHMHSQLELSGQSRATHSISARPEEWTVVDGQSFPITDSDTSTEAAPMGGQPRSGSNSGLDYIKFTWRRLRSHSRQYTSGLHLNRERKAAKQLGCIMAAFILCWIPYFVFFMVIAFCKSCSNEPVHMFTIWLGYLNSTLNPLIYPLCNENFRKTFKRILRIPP

By ED50 is commonly meant the dose that gives a 50% effect, or the effect in half of the subjects. As a reminder, the IC50 is the concentration needed to halve the response being measured. What is called mortality is the percentage killed. Regarding `COc1ccc2c(c1OC)C(=O)OC2Nc1ccccc1CCN1CCN(c2ccc(F)cc2)CC1` (stereo not drawn) [COR 34 43, 6,7-dimethoxy-3-(2-(4-p-fluorophenylpiperazinylethyl)-anilino)isobenzofuranone], the ED50 in [1] was found to be 9.1 mg/kg; in data set [4], 11.1 mg/kg; in data set [5], 6.6 mg/kg; in data set [8] it was 17.1 mg/kg. Further, the “% of animals protected at 1 h” value in data set [2] is 90%. In addition, in data set [2], the “% of animals protected at 6 h” value is listed as 50%. Also, the Kb in data set [3] is 10.7 nM. In addition, the figures for the IC50 in data set [3] (setting [12]) and in data set [6] (time of contact 3 mm) were 3530 nM and 20500 nM, respectively. For the same compound, the mortality in [7] (1000 mg/kg), in [7] (2000 mg/kg), in data set [9] (500 mg/kg), in data set [9] (800 mg/kg) and in data set [9] (1000 mg/kg) was 0% in each case.

A word on the LD50: it is the dose expected to kill half of the subjects tested. The compound `COc1ccc(N2CCN(CCc3ccccc3NC3OC(=O)c4ccccc43)CC2)cc1` (stereo not drawn) [COR 34 53, 3-(2-(4-methoxyphenylpiperazinylethyl)anilino)isobenzofuranone] returned an IC50 in data set [3] (time of contact 5 mm) of approximately 1500 nM. The mortality in [7] (1000 mg/kg) turned out to be 0%; in data set [7] (2000 mg/kg) it was 20%; in data set [9] (500 mg/kg), 60%; in [9] (1000 mg/kg), 100%. Further, the LD50 in data set [9] worked out at 500 mg/kg.

For `O=C1OC(Nc2ccccc2CCN2CCN(c3ccccc3)CC2)c2ccccc21` (stereo not drawn) [COR 34 30, 3-(2-(4-phenylpiperazinylethyl)anilino)-isobenzofuranone], the ED50 in [1] is 12.1 mg/kg; in [4], 11.2 mg/kg; in [5], 3.8 mg/kg; in [8] it was 13.2 mg/kg; in the data set on motility, approximately 50 mg/kg. Also, the “% of animals protected at 1 h” value in data set [2] amounted to 60%. In addition, in data set [2], the “% of animals protected at 6 h” value stood at 40%. The Kb in data set [3] was 20.4 nM. The IC50 in data set [3] (setting [12]) came out at 1040 nM; in data set [6] (time of contact 5 mm), 9330 nM. The mortality in data set [7] (1000 mg/kg) turned out to be 0%; in data set [7] (2000 mg/kg), 0%; in [7] (3000 mg/kg) it was 10%; in [9] (100 mg/kg) it was 0%; in data set [9] (200 mg/kg), 10%; in data set [9] (300 mg/kg), 0%. The mortality in data set [9] (500 mg/kg) is 0%.

`COc1ccc2c(c1OC)C(=O)OC2Nc1ccccc1CCN1CCN(c2ccc(Cl)cc2)CC1` (stereo not drawn) [COR 34 42, 3-(2-(4-p-chlorophenylpiperazinylethyl)-aniline)-6,7-dimethoxyisobenzofuranone]: the “AP returns to normal at the end of” value in data set [10] (50 mg/kg per os) was 5 h. In [10] (50 mg/kg per os), the “drop in AP” value amounted to 15.6%. The IC50 in [3] (time of contact 5 mm) came out at 33 nM. The ED50 in [5] was 14.8 mg/kg; in the data set on motility it was 10 mg/kg. Moreover, the mortality in data set [7] (1000 mg/kg) and in [7] (2000 mg/kg) was 0% throughout.

Regarding `Cc1ccccc1N1CCN(CCc2ccccc2NC2OC(=O)c3ccccc32)CC1` (stereo not drawn) [COR 34 49, 3-(2-(4-(2-methylphenyl)piperazinylethyl)-aniline)isobenzofuranone], the “% of animals protected at 1 h” value in data set [2] is reported as 30%. The “% of animals protected at 6 h” value in [2] turned out to be 20%. The compound further had an IC50 in data set [3] (time of contact 10 mm) of 80 nM. Moreover, the mortality is 0% in data set [7] (1000 mg/kg), 0% in [7] (2000 mg/kg), 0% in data set [9] (500 mg/kg) and 20% in data set [9] (1000 mg/kg). Besides, the ED50 in the data set with motility is 18 mg/kg.

In [6] (time of contact 3 mm), `CC(CN1c2ccccc2Sc2ccccc21)N(C)C` (stereo not drawn) [Promethazine, reference compound] registered an IC50 of 444 nM.

Regarding `Nc1ccccc1CCN1CCN(c2ccccc2)CC1` [product of Example 1, 2-(4-phenylpiperazinylethyl)aniline], the LD50 in the data set with Swiss mice is on record as 1175 mg/kg.

In the case of `COc1ccc2c(c1OC)C(=O)OC2Nc1ccccc1CCN1CCN(c2ccccc2C)CC1` (stereo not drawn) [COR 34 48], the “% of animals protected at 1 h” value in data set [2] came out at 40%. For the same compound, the “% of animals protected at 6 h” value in data set [2] was 10%. In addition, the figures for the IC50 in [3] (time of contact 5 mm) and in data set [6] (time of contact 5 mm) were 55 nM and 6460 nM, respectively. The mortality in data set [7] (1000 mg/kg), in data set [7] (2000 mg/kg), in data set [9] (500 mg/kg) and in data set [9] (1000 mg/kg) was 0% each time. For the same compound, the ED50 in the data set on motility stood at 9 mg/kg.

For `O=C1OC(Nc2ccccc2CCN2CCN(c3ccc(F)cc3)CC2)c2ccccc21` (stereo not drawn) [COR 34 37, 3-(2-(4-fluorophenylpiperazinylethyl)anilino)isobenzofuranone], the ED50 in [1] worked out at 9.3 mg/kg; in [4] it was 9.4 mg/kg; in data set [5], 6.4 mg/kg; in [8] it was 7.9 mg/kg. Besides, the “% of animals protected at 1 h” value in data set [2] came out at 70%. Moreover, the “% of animals protected at 6 h” value in data set [2] is recorded as 70%. Moreover, in [3], the Kb was 13.8 nM. In addition, the IC50 in data set [3] (time of contact 3 mm) was found to be 15.5 nM; in data set [6] (time of contact 5 mm) it was 22700 nM. Besides, the mortality in [7] (750 mg/kg) worked out at 0%; in data set [7] (1000 mg/kg), 10%; in data set [7] (2000 mg/kg), 50%; in data set [9] (500 mg/kg), 20%; in data set [9] (1000 mg/kg) it was 60%.

As for `COc1ccc2c(c1OC)C(=O)OC2Nc1ccccc1CCN1CCN(c2ccccc2)CC1` (stereo not drawn) [COR 34 47, 6,7-dimethoxy-3-(2-(4-phenylpiperazinylethyl)anilino)isobenzofuranone], the “% of animals protected at 1 h” value in [2] is listed as 20%. Further, the “% of animals protected at 6 h” value in [2] is reported as 0%. Besides, the IC50 in data set [3] (time of contact 3 mm) was found to be 29 nM; in data set [6] (time of contact 3 mm), 19700 nM. In addition, the mortality in data set [7] (1000 mg/kg), in [7] (2000 mg/kg), in data set [9] (500 mg/kg) and in data set [9] (1000 mg/kg) was 0% each time.

As to `COc1ccccc1N1CCN(CCc2ccccc2NC2OC(=O)c3ccccc32)CC1` (stereo not drawn) [COR 34 41], the ED50 stood at 7.9 mg/kg in [1], 10.9 mg/kg in [4], 4.1 mg/kg in data set [5] and 14 mg/kg in [8]. In data set [2], the “% of animals protected at 1 h” value is 90%. In data set [2], the “% of animals protected at 6 h” value worked out at 60%. Moreover, the “AP returns to normal at the end of” value in data set [10] (25 mg/kg per os) was “an hour”; in data set [10] (50 mg/kg per os), 5 h. Also, the “drop in AP” value in [10] (25 mg/kg per os) stood at 18.8%; in [10] (50 mg/kg per os), 19.3%. The Kb in data set [3] was 9.33 nM. The IC50 stood at 31.1 nM in [3] (time of contact 10 mm) and 12600 nM in data set [6] (time of contact 15 mm). Moreover, the “AP below its initial value at the end of the treatment” value in data set [11] is reported as “about 18 mm Hg”. Further, the mortality in [7] (750 mg/kg) was determined as 0%; in data set [7] (1000 mg/kg), 10%; in data set [7] (2000 mg/kg), 10%; in data set [9] (400 mg/kg), 0%; in data set [9] (500 mg/kg), 25%; in data set [9] (800 mg/kg), 35%. Also, the mortality in [9] (900 mg/kg) was 50%; in data set [9] (1000 mg/kg), 70%. Further, the LD50 in data set [9] is 873 mg/kg.
